# Where a SMILES comes first, the peptide text is derived from it. [ ]: non-standard residue; d: D form. Aib = CC(C)(N)C(=O)O
# How the values were obtained:
# human GLP-1R = human GLP-1R (Homo sapiens, UniProt P43220); assay: Peptide-receptor mediated cAMP accumulation (LANCE Ultra cAMP) in CHO-K1 cells transfected with human GLP-1R; assay type: cell-based; conditions: hGLP1 pEC50 (cAMP mean (n = 3): 11 point curve starting at 1 nM, Table 3)
# human GCGR = human GCGR (Homo sapiens, UniProt P47871); assay: Peptide-receptor mediated cAMP accumulation (LANCE Ultra cAMP) in CHO-K1 cells transfected with human GCGR; assay type: cell-based; conditions: Table 3
# Chain of human GCGR (P47871 26-477): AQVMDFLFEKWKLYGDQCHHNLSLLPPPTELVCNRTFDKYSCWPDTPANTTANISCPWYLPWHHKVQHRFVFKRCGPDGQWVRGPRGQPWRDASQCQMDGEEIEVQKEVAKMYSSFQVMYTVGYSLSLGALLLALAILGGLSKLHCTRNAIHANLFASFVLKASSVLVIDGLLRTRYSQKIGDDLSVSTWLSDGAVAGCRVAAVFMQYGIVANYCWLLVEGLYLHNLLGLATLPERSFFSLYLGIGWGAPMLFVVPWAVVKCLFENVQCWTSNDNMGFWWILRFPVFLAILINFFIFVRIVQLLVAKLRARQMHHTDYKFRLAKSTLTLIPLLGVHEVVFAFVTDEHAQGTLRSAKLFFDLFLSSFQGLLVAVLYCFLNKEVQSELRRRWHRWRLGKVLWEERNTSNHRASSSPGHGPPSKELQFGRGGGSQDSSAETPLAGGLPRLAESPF
# Chain of human GLP-1R (P43220 24-463): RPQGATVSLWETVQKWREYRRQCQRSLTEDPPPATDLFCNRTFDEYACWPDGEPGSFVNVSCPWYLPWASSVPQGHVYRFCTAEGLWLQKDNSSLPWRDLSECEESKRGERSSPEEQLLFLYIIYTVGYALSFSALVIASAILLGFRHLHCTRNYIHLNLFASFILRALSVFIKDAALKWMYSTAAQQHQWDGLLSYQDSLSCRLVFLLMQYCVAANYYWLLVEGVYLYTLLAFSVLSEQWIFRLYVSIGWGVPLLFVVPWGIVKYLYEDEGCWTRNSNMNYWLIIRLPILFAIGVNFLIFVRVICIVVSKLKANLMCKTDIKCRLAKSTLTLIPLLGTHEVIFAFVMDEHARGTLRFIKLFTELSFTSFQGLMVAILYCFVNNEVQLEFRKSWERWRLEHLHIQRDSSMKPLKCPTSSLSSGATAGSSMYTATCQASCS
SMILES,EC50 (human GLP-1R) [pM],EC50 (human GCGR) [pM]
CC(C)C[C@H](NC(=O)[C@H](Cc1ccc(O)cc1)NC(=O)[C@H](CCCCN)NC(=O)[C@H](CO)NC(=O)[C@H](Cc1ccc(O)cc1)NC(=O)[C@H](CC(=O)O)NC(=O)[C@H](CO)NC(=O)[C@@H](NC(=O)[C@H](Cc1ccccc1)NC(=O)[C@@H](NC(=O)CNC(=O)[C@H](Cc1c[nH]cn1)NC(=O)[C@@H](NC(=O)[C@@H](N)Cc1ccc(O)cc1)[C@@H](C)O)[C@@H](C)O)[C@@H](C)O)C(=O)N[C@@H](CC(=O)O)C(=O)N[C@@H](CO)C(=O)N[C@@H](C)C(=O)N[C@@H](CCCNC(=N)N)C(=O)N[C@@H](C)C(=O)N[C@@H](CCC(N)=O)C(=O)N[C@@H](CCC(=O)O)C(=O)N[C@@H](Cc1ccccc1)C(=O)N[C@H](C(=O)N[C@@H](CCCCN)C(=O)N[C@@H](Cc1c[nH]c2ccccc12)C(=O)N[C@@H](CC(C)C)C(=O)N[C@@H](CCC(=O)O)C(=O)N[C@@H](CC(=O)O)C(=O)N[C@@H](CCC(=O)O)C(=O)N1CCC[C@H]1C(=O)N[C@@H](CO)C(=O)N[C@@H](CO)C(=O)NCC(=O)N[C@@H](C)C(=O)N1CCC[C@H]1C(=O)N1CCC[C@H]1C(=O)N1CCC[C@H]1C(=O)N[C@@H](CO)C(=O)O)C(C)C [Compound A63] (H-YTHGTFTSDYSKYLDSARAQEFVKWLEDEPSSGAPPPS-OH),> 1000,39.8
CC(C)C[C@H](NC(=O)[C@H](Cc1ccc(O)cc1)NC(=O)[C@H](CCCCN)NC(=O)[C@H](CO)NC(=O)[C@H](Cc1ccc(O)cc1)NC(=O)[C@H](CC(=O)O)NC(=O)[C@H](CO)NC(=O)[C@@H](NC(=O)[C@H](Cc1ccccc1)NC(=O)[C@@H](NC(=O)CNC(=O)[C@H](Cc1c[nH]cn1)NC(=O)[C@@H](NC(=O)[C@@H](N)Cc1ccc(O)cc1)[C@@H](C)O)[C@@H](C)O)[C@@H](C)O)C(=O)N[C@@H](CC(=O)O)C(=O)NC(C)(C)C(=O)N[C@@H](C)C(=O)N[C@@H](CCCNC(=N)N)C(=O)N[C@@H](C)C(=O)N[C@@H](CCC(N)=O)C(=O)N[C@@H](CCC(=O)O)C(=O)N[C@@H](Cc1ccccc1)C(=O)N[C@H](C(=O)NC(C)(C)C(=O)N[C@@H](Cc1c[nH]c2ccccc12)C(=O)N[C@@H](CC(C)C)C(=O)N[C@@H](CCC(=O)O)C(=O)N[C@@H](CC(=O)O)C(=O)N[C@@H](CCC(=O)O)C(=O)N1CCC[C@H]1C(=O)N[C@@H](CO)C(=O)N[C@@H](CO)C(=O)NCC(=O)N[C@@H](C)C(=O)N1CCC[C@H]1C(=O)N1CCC[C@H]1C(=O)N1CCC[C@H]1C(=O)N[C@@H](CO)C(=O)O)C(C)C [Compound A64] (H-YTHGTFTSDYSKYLD[Aib]ARAQEFV[Aib]WLEDEPSSGAPPPS-OH; N-terminus assumed),> 1000,20
CC(C)C[C@H](NC(=O)[C@H](Cc1ccc(O)cc1)NC(=O)[C@H](CCCCN)NC(=O)[C@H](CO)NC(=O)[C@H](Cc1ccc(O)cc1)NC(=O)[C@H](CC(=O)O)NC(=O)[C@H](CO)NC(=O)[C@@H](NC(=O)[C@H](Cc1ccccc1)NC(=O)[C@@H](NC(=O)CNC(=O)[C@H](Cc1c[nH]cn1)NC(=O)[C@H](CO)NC(=O)[C@@H](N)Cc1ccc(O)cc1)[C@@H](C)O)[C@@H](C)O)C(=O)N[C@@H](CC(=O)O)C(=O)NC(C)(C)C(=O)N[C@@H](C)C(=O)N[C@@H](CCCNC(=N)N)C(=O)N[C@@H](C)C(=O)N[C@@H](CCC(N)=O)C(=O)N[C@@H](CCC(=O)O)C(=O)N[C@@H](Cc1ccccc1)C(=O)N[C@H](C(=O)NC(C)(C)C(=O)N[C@@H](Cc1c[nH]c2ccccc12)C(=O)N[C@@H](CC(C)C)C(=O)N[C@@H](CCC(=O)O)C(=O)N[C@@H](CC(=O)O)C(=O)N[C@@H](CCC(=O)O)C(=O)N1CCC[C@H]1C(=O)N[C@@H](CCCCN)C(=O)N[C@@H](CO)C(=O)N[C@@H](CCCCN)C(=O)N[C@@H](CO)C(=O)N1CCC[C@H]1C(=O)N1CCC[C@H]1C(=O)N1CCC[C@H]1C(=O)N[C@@H](CO)C(N)=O)C(C)C [Compound A67] (H-YSHGTFTSDYSKYLD[Aib]ARAQEFV[Aib]WLEDEPKSKSPPPS-NH2; N-terminus assumed),> 1000,12.6

# Source: US20240239861A1, “GLUCAGON-RECEPTOR SELECTIVE POLYPEPTIDES AND METHODS OF USE THEREOF” (i2O Therapeutics, Inc., priority 2016, published 2024)
